Test results: patent US9828350B2, “5,6-dihydro-2H-[1,4]oxazin-3-yl-amine derivatives useful as inhibitors of beta-secretase (BACE)” (Janssen Pharmaceutica NV, priority 2010, dated 2017)
Structures can show the parent of a compound that is named as a salt.

Tests used:
Abeta 1-42 = assay: Cellular αLisa assay in SKNBE2 cells, Abeta 1-42; format: cell-based, human; settings: incubated for 18 hours; for IC50: Homo sapiens, SKNBE2, 18 h, read-out: Cellular αLisa assay in SKNBE2 cells Abeta 42 pIC50 (converted)
Description: (§1) Cellular αLisa Assay in SKNBE2 Cells
(§2) In two αLisa assays the levels of Abeta total and Abeta 1-42 produced and secreted into the medium of human neuroblastoma SKNBE2 cells are quantified. The assay is based on the human neuroblastoma SKNBE2 expressing the wild type Amyloid Precursor Protein (hAPP695). The compounds are diluted and added to these cells, incubated for 18 hours and then measurements of Abeta 1-42 and Abeta total are taken. Abeta total and Abeta 1-42 are measured by sandwich αLisa. αLisa is a sandwich assay using biotinylated antibody AbN/25 attached to streptavidin coated beads and antibody Ab4G8 or cAb42/26 conjugated acceptor beads for the detection of Abeta total and Abeta 1-42 respectively. In the presence of Abeta total or Abeta 1-42, the beads come into close proximity. The excitation of the donor beads provokes the release of singlet oxygen molecules that trigger a cascade of energy transfer in the acceptor beads, resulting in light emission. Light emission is measured after 1 hour incubation (excitation at […] and emission at 615 nm).

Abeta total = assay: Cellular αLisa assay in SKNBE2 cells, Abeta total; format: cell-based, human; settings: incubated for 18 hours; for IC50: Homo sapiens, SKNBE2, 18 h, read-out: Cellular αLisa assay in SKNBE2 cells Abetatotal pIC50 (converted)
Description: as §1, §2

Compound | IC50 (Abeta 1-42) [nM] | IC50 (Abeta total) [nM] | Cellular αLisa assay in SKNBE2 cells Abeta 42 pIC50 (Abeta 1-42) | Cellular αLisa assay in SKNBE2 cells Abetatotal pIC50 (Abeta total)
COc1ccc(C(=O)Nc2cccc([C@@]3(C)N=C(N)CO[C@]3(F)C(F)(F)F)c2)nc1 [Compound 247] | 16.2 | 14.5 |  | 
CC1(c2cccc(NC(=O)c3ccc(Cl)cn3)c2)N=C(N)COC1(F)C(F)(F)F (single isomer, unassigned) [Compound 114] |  |  | 5.82 | 5.5
C[C@@]1(c2cc(NC(=O)c3ccc(Cl)cn3)ccc2F)COCC(N)=N1 [Compound 44] |  |  | 8.39 | 8.3945
C[C@]1(c2cc(NC(=O)c3ccc(Cl)cn3)ccc2F)N=C(N)CO[C@@]1(F)C(F)(F)F (single isomer, unassigned) [Compound 110, (2S*,3R*)—N-{3-[5-amino-2-fluoro-3-methyl-2-(trifluoromethyl)-3,6-dihydro-2H-1,4-oxazin-3-yl]-4-fluorophenyl}-5-chloropyridine-2-carboxamide] | 22.9 | 22.4 |  | 
CC1(c2cc(NC(=O)c3ccc(Cl)cn3)ccc2F)N=C(N)COC1F (single isomer, unassigned) [Compound 135] |  |  | 5.04 | 5.06
CC1(c2cccc(-c3cncnc3)c2)COCC(N)=N1 (racemic) [Compound 3, rac-5-methyl-5-(3-pyrimidin-5-ylphenyl)-5,6-dihydro-2H-1,4-oxazin-3-amine trifluoroacetate salt] | 631 | 646 |  | 
CC1(c2cc(NC(=O)c3ccc(Cl)cn3)ccc2F)N=C(N)COC1F (single isomer, unassigned) [Compound 136] |  |  | 5.26 | 5.27
CC1(c2cc(NC(=O)c3ccc(Cl)cn3)ccc2F)N=C(N)COC1(F)C(F)(F)F.Cl.Cl (single isomer, unassigned) [Compound 159] |  |  | 6.15 | 6.08
COc1cnc(C(=O)Nc2ccc(F)c(C3(C)N=C(N)COC3F)c2)cn1 (single isomer, unassigned) [Compound 129] | 5250 | 4570 |  | 
CC1(c2cc(NC(=O)c3ccc(Cl)cn3)ccc2F)COCC(N)=N1 (racemic) [Compound 17] |  |  | 8.32 | 8.3
NC1=N[C@@](c2cc(-c3cncc(Cl)c3)ccc2F)(C2CC2)[C@H](F)OC1 [Compound 273] | 8130 | 6460 |  | 
C[C@@]1(c2cc(NC(=O)c3ccc(Cl)cn3)ccc2F)COCC(N)=N1 [Compound 62] |  |  | 8.39 | 8.39
CC1(c2cc(NC(=O)c3ccc(Cl)cn3)ccc2F)N=C(N)COC1(F)C(F)(F)F (stereo not shown) [Compound 186] |  |  | 6.75 | 6.78
CC1(c2cc(NC(=O)c3ccc(Cl)cn3)ccc2F)N=C(N)COC1C(F)(F)F (racemic) [Compound 107, trans-rac-N-{3-[5-amino-3-methyl-2-(trifluoromethyl)-3,6-dihydro-2H-1,4-oxazin-3-yl]-4-fluorophenyl}-5-chloropyridine-2-carboxamide] | 15.5 | 12.6 |  | 
COc1cnc(C(=O)Nc2ccc(F)c(C3(C)N=C(N)COC3F)c2)cn1 (stereo not shown) [Compound 79] | 25.7 | 25.7 |  | 
CC1(c2cc(NC(=O)c3ccc(C#N)cn3)ccc2F)N=C(N)COC1F (stereo not shown) [Compound 76] | 11 | 11.2 |  | 
COc1cnc(C(=O)Nc2ccc(F)c(C3(C4CC4)N=C(N)COC3F)c2)cn1.Cl (stereo not shown) [Compound 244] |  |  |  | 7.11
CC1(c2cccc(NC(=O)c3ccc(Cl)cn3)c2)N=C(N)COC1(F)C(F)(F)F (single isomer, unassigned) [Compound 115] |  |  |  | 6.68
